The text below walks through data of patent US9314464B2, “Compounds and compositions as protein kinase inhibitors” (Novartis AG, priority 2009, dated 2016).

Data set [1] is described as follows: Liver Microsomal Clearance Assay, human. The class given is in vitro ADME. The conditions noted are these: extraction ratio, human liver microsomes. Here is the method: (§1) Liver Microsomal Clearance Assay
(§2) The in vitro microsomal clearance assay is designed to assess potential risks associated with hepatic metabolic stability of compounds. The test compound (1 μM) was incubated with liver microsomes (0.5 mg/mL) from different species (mouse, rat, monkey, dog and human) and NADPH (1 mM) in 100 mM potassium phosphate buffer at 37° C. At specific reaction time points (0, 5, 10 and 30 minutes), reaction aliquots were removed and reactions were terminated by addition of ice cold acetonitrile containing mass spectrometry internal standard. The samples were centrifuged and the supernatants were analyzed by LC-MS/MS. In vitro metabolic half-life (t1/2, min) and intrinsic clearance (CLint, μL/min/mg) are based on the rate and extent of metabolism of the test compound as determined by the disappearance of the parent compound from the reaction mixture. These values may be scaled to predict hepatic metabolic clearance rate (CLh, mL/min/kg) and extraction ratio (ER, expressed as a ratio of the predicted hepatic metabolic clearance to hepatic blood flow in that species). In general, compounds with high predicted CLint or ER in vitro are considered to be at high risk for exposure-limiting metabolism in vivo.

Data set [2] is described as follows: Liver Microsomal Clearance Assay, mouse. Type of data set: in vitro ADME. The settings on record: extraction ratio, mouse liver microsomes. Here is the method:
as §1, §2
Background: Microsomes from liver hold many membrane-bound enzymes, among them those of drug oxidation.

Data set [3] in a line: In Vivo Pharmacokinetics Assay in mouse. The conditions noted are these: for bioavailability at 24 h: 10 mg/kg, PO/IV 10/2 mg/kg; for clearance at 24 h: IV 2 mg/kg. Here is the method:
Full pharmacokinetics study: Male Balb/c mice (n=3, body weights 22-25 g) or male Wistar rats (n=3, body weights 250-300 g) were administered the test compound intravenously via the lateral tail vein or orally via gavage. The formulation was typically a 2.5 mg/mL solution of the compound in 75% PEG300 and 25% D5W. Six blood samples of 50 μL each were collected serially for 24 h after dosing. The blood samples were centrifuged to separate the plasma. Plasma samples were analyzed and quantified by LC-MS/MS.
Rapid pharmacokinetics study: Male Balb/c mice (n=3, body weights 22-25 g) or male Wistar rats (n=3, body weights 250-300 g) were administered the test compound intravenously (IV) via the lateral tail vein or orally (PO) via gavage. The formulation was typically a 2.5 mg/mL solution of the compound in 75% PEG300 and 25% D5W. Six blood samples of 50 μL each were collected serially for 24 h after dosing. Blood samples were centrifuged and plasma separated and pooled across the three animals at each time point per dose route. Plasma samples were analyzed and quantified by LC-MS/MS.
For both full and rapid pharmacokinetics studies, the following parameters were calculated by non-compartmental regression analysis using Winnonlin 5.0 software (Pharsight, Mountain View, Calif., USA): plasma clearance (Cl), plasma maximum concentration (Cmax), plasma area-under-the-concentration-time-curve (AUC0-inf), and percent oral bioavailability (F %).

Data set [4] deals with B-Raf V600E (Homo sapiens (Human), UniProt P15056, V600E). As to the kind of experiment: B-Raf V600E/Mek Amplified Luminescence Proximity Homogeneous Assay (B-Raf V600E biochemical). The settings on record: read-out: BRAF V600E biochemical IC50. Here is the method:
The plate was incubated for 60 minutes at room temperature.
The B-Raf kinase activity reaction was started by the addition of 10 μl per well of 2×ATP (10 μM) diluted in assay buffer. After 3 hours, the reactions were stopped with the addition of 10 μl of stop reagent (60 mM EDTA, 0.01% Tween20). Phosphorylated product was measured using a rabbit anti-p-MEK (Cell Signaling, #9121) antibody and the Alpha Screen IgG (ProteinA) detection Kit (PerkinElmer #6760617R), by the addition of 30 μl to the well of a mixture of the antibody (1:2000 dilution) and detection beads (1:1000 dilution of both beads) in bead buffer (50 mM Tris, pH 7.5, 0.01% Tween20). The additions were carried out under dark conditions to protect the detection beads from light. A lid was placed on top of the plate and the plate was incubated for 1 hour at room temperature. The luminescence was read on a PerkinElmer Envision instrument. The concentration of each compound for 50% inhibition (IC50) was calculated by non-linear regression using XL Fit data analysis software.

The subject of data set [5] is SW620 cells. As to the kind of experiment: SW620 Cell Viability Assay (Cell Titer Glo). Type of data set: cell-based. The settings on record: FIG. 1, compound alone. Here is the method: The present invention also includes combinations of the BRaf inhibitors disclosed in this invention with other agents. In particular, the present invention provides for combinations with MEK1/2 inhibitors. FIG. 1 illustrates that the addition of a MEK small molecule inhibitor can reverse the induced ERK signaling, cell growth and transformation caused by a Raf small molecule inhibitor.
SW620 cells were seeded in 1640 RPMI+10% FBS at a density of 1500 cells per 96-well in black walled, clear bottom tissue culture treated plates. Test compounds were serially diluted in DMSO then added to the cells (final DMSO concentration of 0.1%) and incubated at 37° C. and 5% CO2 for 4 days. To measure cell viability, cell plates were brought to room temperature, culture media was removed, and 200 μl of Cell Titer-Glo reagent (Promega, kit components mixed as per the manufacturer's protocol then diluted 1:2 with growth media) was added to each well. Plates were shaken for 5 minutes, then incubated at room temperature for 5 minutes, and the luminescence was measured (Trilux, Perkin Elmer).
(In general: In ATP-based viability assays light output follows the ATP content of the culture.)

Data set [6] concerns A375 cells. Nature of the data set: In Vivo Efficacy - 14 Day A375 Mouse Xenograft Model. Here is the method: A375 cells were grown in sterile conditions in a 37° C. incubator with 5% CO2 for two to four weeks. The cells were cultured in RPMI-1640 media supplemented with 10% FBS. Cells were passaged twice weekly with 0.05% Trypsin/EDTA. On the day of implant, cells were harvested in HBSS (Hank's Balanced Salt Solution). Female Nu/Nu mice (Charles River, 10-11 weeks at start of study) were implanted with 5×10^6 A375 cells/mouse in 50% matrigel, 0.2 mL SQ right flank on day 1. At 19 days post-implant, mice were randomized into 6 groups (9 mice per group), with an average tumor volume of 215 mm^3 and average body weight of 24 g. Test compound was dosed BID for 14 days commencing on day 19 using a dosing volume 0.2 mL per dose, with compound formulated at the appropriate concentration to attain the desired dose level. Clinical observations were made daily. Tumor volume and body weight were measured twice weekly.
Tumor volume results were assessed at 14 days post-first dose. Partial response is defined as having tumor growth 20-50% of control tumor growth. Stable disease is defined as having final tumor volume within +/−20% of initial tumor size. Partial regression is defined as having final tumor volume<80% of initial tumor volume.

Where [7] appears, read: male, Balb/c, plasma, PO 10 mg/kg.

Structures are written as SMILES.

Chain of B-Raf V600E (P15056 whole entry V600E): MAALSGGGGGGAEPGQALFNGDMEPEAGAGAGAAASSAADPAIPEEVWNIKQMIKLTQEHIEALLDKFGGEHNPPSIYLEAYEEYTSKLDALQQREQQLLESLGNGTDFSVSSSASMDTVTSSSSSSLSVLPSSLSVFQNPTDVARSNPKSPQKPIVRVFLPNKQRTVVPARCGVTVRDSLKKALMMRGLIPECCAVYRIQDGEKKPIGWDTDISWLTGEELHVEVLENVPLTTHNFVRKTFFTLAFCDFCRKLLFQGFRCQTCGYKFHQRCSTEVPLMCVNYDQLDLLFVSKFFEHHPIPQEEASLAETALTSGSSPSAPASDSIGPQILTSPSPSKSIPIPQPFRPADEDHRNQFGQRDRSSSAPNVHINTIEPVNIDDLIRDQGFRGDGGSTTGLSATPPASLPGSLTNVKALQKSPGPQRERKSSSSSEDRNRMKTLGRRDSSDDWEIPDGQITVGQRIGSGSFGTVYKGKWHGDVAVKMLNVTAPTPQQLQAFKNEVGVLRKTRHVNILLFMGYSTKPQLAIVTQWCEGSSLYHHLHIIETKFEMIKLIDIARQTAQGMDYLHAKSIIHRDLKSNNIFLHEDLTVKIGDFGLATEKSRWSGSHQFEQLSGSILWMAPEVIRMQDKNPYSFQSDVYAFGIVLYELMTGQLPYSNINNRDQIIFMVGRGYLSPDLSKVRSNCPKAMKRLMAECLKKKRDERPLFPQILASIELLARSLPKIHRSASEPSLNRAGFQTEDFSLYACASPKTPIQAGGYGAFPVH

`COC(=O)N[C@@H](C)CNc1nccc(-c2cn(C(C)C)nc2-c2cccc(NS(C)(=O)=O)c2F)n1` [Compound 4, methyl N-[(2S)-1-({4-[3-(2-fluoro-3-methanesulfonamidophenyl)-1-(propan-2-yl)-1H-pyrazol-4-yl]pyrimidin-2-yl}amino)propan-2-yl]carbamate]: in data set [1], the “ER Human” value is given as under 0.31. Also, in data set [2], the “ER Mouse” value amounted to 0.40. In data set [3] (male, Balb/c, plasma), the bioavailability at 24 h was found to be 36 ± 6% and the clearance at 24 h worked out at 41 ± 9 mL/min/kg. In data set [3] (setting [7]), the AUC at 24 h worked out at 3 ± 0.5 µM·h and the concentration peaked (Cmax at 24 h) at 2000 ± 500 nM. The IC50 in data set [4] was found to be 2.3 nM.
As for `CCCS(=O)(=O)Nc1ccc(F)c(-c2nn(C(C)C)cc2-c2ccnc(NC[C@H](C)NC(=O)OC)n2)c1F` [Compound 7, Methyl N-[(2S)-1-[(4-{3-[2,6-difluoro-3-(propane-1-sulfonamido)phenyl]-1-(propan-2-yl)-1H-pyrazol-4-yl}pyrimidin-2-yl)amino]propan-2-yl]carbamate], in data set [1], the “ER Human” value turned out to be 0.65. The “ER Mouse” value in data set [2] was found to be 0.91. In data set [3] (male, Balb/c, plasma), this compound yielded a bioavailability at 24 h of 8 ± 7% and a clearance at 24 h of 99 ± 13 mL/min/kg. In data set [3] (setting [7]), this compound gave an AUC at 24 h of 0.24 ± 0.21 µM·h and a Cmax at 24 h of 150 ± 70 nM. Besides, the IC50 in data set [4] came out at 0.7 nM.
In the case of `COC(=O)N[C@@H](C)CNc1nccc(-c2cn(C(C)C)nc2-c2cc(Cl)cc(NS(C)(=O)=O)c2F)n1` [Compound 9, Methyl N-[(2S)-1-({4-[3-(5-chloro-2-fluoro-3-methanesulfonamidophenyl)-1-(propan-2-yl)-1H-pyrazol-4-yl]pyrimidin-2-yl}amino)propan-2-yl]carbamate], in data set [5], the “cellular proliferation in Cell Titer Glo assay” value is “induction in cellular proliferation”. Besides, the “ER Human” value in data set [1] is recorded as under 0.21. For the same compound, the Tumor volume result in data set [6] (1 mg/kg bid×14, 14 days post-first dose) is given as “partial response (Partial response is defined as having tumor growth 20-50% of control tumor growth)”; in data set [6] (3 mg/kg bid×14, 14 days post-first dose) it was “stable disease (Stable disease is defined as having final tumor volume within +/−20% of initial tumor size)”; in data set [6] (10 mg/kg bid×14, 14 days post-first dose) it was “partial regression (Partial regression is defined as having final tumor volume<80% of initial tumor volume)”; in data set [6] (20 mg/kg bid×14, 14 days post-first dose), “partial regression (Partial regression is defined as having final tumor volume<80% of initial tumor volume)”. The “ER Mouse” value in data set [2] was 0.48. The “PO AUC” value in data set [3] (PO 10 mg/kg) came out at 30 ± 4 µM·h. In data set [3] (male, Balb/c, plasma), this compound had a bioavailability at 24 h of 43 ± 6%. In data set [3] (male, Balb/c, plasma), the clearance at 24 h came to 4.3 ± 0.4 mL/min/kg. The compound further registered a Cmax at 24 h in data set [3] (setting [7]) of 27000 ± 4000 nM. This compound displayed an AUC in data set [3] (male, Balb/c, plasma, oral dose of 10 mg/kg) of 30 ± 4 µM·h.

As usually defined, the bioavailability is the share of a dose that reaches the circulation, judged against a reference dose that is usually intravenous. As usually defined, the clearance is the rate of elimination divided by the concentration. A higher clearance goes with a high capacity for elimination. One may read the AUC as concentration integrated over time. Read a high AUC as more exposure. Broadly, the Cmax is the maximum level reached in the sampled fluid or tissue. One may read the IC50 as the point on the concentration scale where inhibition reaches its midpoint.
